In US6399649B1, “Compositions and methods for the treatment of chronic lymphocytic leukemia” (Boston Medical Center Corporation, priority 1998, dated 2002):

How the values were obtained:
[1] = tested on: CLL cells, resting or anti-Ig activated CD19+ cells, IL-2 supplemented WMC; experiment: cAMP time course in four cell populations; format: cell-based, human; details: 24 hours; any of the four cell populations
Description: […] 0.8 mL of cells were pelleted by spinning at 4,000 rpm (RCF=1,310) in microcentrifuge tube. After discarding 0.7 mL, 400 uL of ethanol was added, vortexed and left on ice for five minutes. Particulate cell debris was removed by centrifugation at 14,000 rpm (RCF=16,000). The supernatant was stored at −20° C. until the day of assay, at which time it was dried in a Speedivac (Savant, Farmingdale, N.Y.) to a volume of 50 uL. After ten-fold dilution in 10 mMol/L Tris pH 8.0, 1 mMol/L EDTA, the cAMP sample was analyzed for cAMP concentration using a cAMP RIA kit (NEN, Boston, Mass.) according to the manufacturer's instructions using the nonacetylated protocol.
(§1) For each of the four cell populations, two or six hours after drug treatment, cAMP levels were higher for rolipram/forskolin-treated cells than for forskolin only treated cells (test: one tailed significance level<0.05) (FIG. 9).

[2] = molecular target: Type 4 enzymes; details: cited from earlier work
[3] = tested on: PDE-4B transcript; experiment: Northern analysis of PDE-4B transcript in cultured CLL cells; format: cell-based, human; details: 10 uMol/L, six hour culture period
Description: RNA was isolated from CLL or whole mononuclear cells using Ultraspec reagent (Biotecx, Houston, Tex.). cDNA was synthesized from 10 ug of total RNA using oligo d(T) primers and Maloney murine leukemia virus reverse transcriptase in a final volume of 40 uL (Stratagene, La Jolla, Calif.). One mL of the first strand cDNA product was then used as template for PCR amplification with AmpliTaq DNA polymerase (Roche Molecular Systems, Branchburg, N.J.) by 40 thermocycles of 94° C. for 1 minute, 600° C. for 1 minute and 72° C. for 1 minute. […] For hybridization to Northern blots, these PCR products were subcloned into a plasmid vector (pCRII, Invitrogen, Carlsbad, Calif.) and subsequently utilized for PCR-based amplification of a32P dATP-labelled probes.
RNA was isolated from 20 million CLL cells immediately after cell purification (CT), or after 6 hours culture in media alone (6 Hr) or with addition of 10 uMol/L rolipram (Roli). Equal loading and transfer of RNA was confirmed by hybridization with an actin probe as shown.

[4] = tested on: CLL cells; experiment: Hoechst 33342 apoptosis assay, CLL cells; format: cell-based, human; details: for percentage of apoptotic cells: 10 uMol/L rolipram
Description: Hoechst 33342 was dissolved in water and frozen at 33 mg/mL at −20° C. One million cells/well were incubated in duplicate or triplicate in 48 well tissue culture plates (Costar, Cambridge, Mass.) with or without drug treatment for […] in 1 mL of culture media. Cells were transferred to 12×75 mm polystyrene Falcon® 2054 FACS tubes (Becton Dickinson Labware, Lincoln Park, N.J.) and incubated for ten minutes at 37° C. with Hoechst 33342 at a final concentration of […]. 23 Cells were stored on ice until analysis on a FACS Vantage flow cytometer (Becton Dickinson, San Jose, Calif.). Hoechst 33342 dye fluorescence was excited with a UV laser and detected using a 450 bandpass filter; Data was analyzed using Cellquest software (Becton Dickinson, San Jose, Calif.).
As a more quantitative analysis of CLL apoptosis, we utilized a flow cytometry method in which apoptotic cells are distinguished both by their reduced size (FSC) and their increased uptake of the lipophilic UV fluorescent dye Hoechst 33342 (FL-4) when the intact, heterogeneous cell population is incubated with a low concentration of the dye (0.25 ug/mL) for 10 minutes at 37° C. Specifically, cells were cultured for 72 hours in media (1), 1uMol/L rolipram (2), 40 uMol/L forskolin (3) or a combination of the two drugs (FIG. 6). The abcissa reflects forward light scatter and the ordinate Hoechst 33342 fluorescence. Apoptotic cells are characterized by reduced forward light scatter and increased Hoechst 33342 fluorescence. Previous reports of cAMP induced lymphoid apoptosis have noted that this form of programmed cell death may take 48 to 72 hours to develop maximally. […] CLL cells were cultured for 72 hours in one mL of media with the indicated concentration of rolipram with (black bars) or without (stippled bars) the addition of 40 uMol/L forskolin.

[5] = tested on: CD19+ B cells; experiment: cAMP assay (RIA) in CD19+ B cells; format: cell-based, human; details: at two hours; unstimulated or anti-Ig stimulated
Description: One million cells in 1 mL were treated for two hours with or without drugs. 0.8 mL of cells were pelleted by spinning at 4,000 rpm (RCF=1,310) in microcentrifuge tube. After discarding 0.7 mL, 400 uL of ethanol was added, vortexed and left on ice for five minutes. Particulate cell debris was removed by centrifugation at 14,000 rpm (RCF=16,000). The supernatant was stored at −20° C. until the day of assay, at which time it was dried in a Speedivac (Savant, Farmingdale, N.Y.) to a volume of 50 uL. After ten-fold dilution in 10 mMol/L Tris pH 8.0, 1 mMol/L EDTA, the cAMP sample was analyzed for cAMP concentration using a cAMP RIA kit (NEN, Boston, Mass.) according to the manufacturer's instructions using the nonacetylated protocol.
as §1

[6] = tested on: CLL cells; experiment: DNA ladder gel assay; format: cell-based, human; details: 72 hours; 10 uMol/L rolipram, 40 uMol/L forskolin
Description: 10 million purified CLL cells were harvested by centrifugation following exposure to drugs during a 72 hour tissue culture incubation. Cells were lysed in 0.5 mL of 20 mMol/L Tris (pH 7.4), 0.4 mMol/L EDTA, 0.25% Triton X. After 15 minutes of incubation at room temperature, nuclei were removed by centrifugation at 14,000 rpm (RCF=16,000). The supernatant was transferred to a new tube and soluble DNA precipitated overnight at −20° C. following the addition of […] of 5 Mol/L NaCl and […] of isopropanol. After centrifugation at 14000 rpm for 10 minutes, followed by a 70% ethanol wash, the pellet was resuspended in 20 uL of 10 mMol/L Tris (pH 8.0), 1 mMol/L EDTA, 0.1 mg/mL RNase and incubated at 37° C. for 30 minutes prior to electrophoresis on 1.6% TBE agarose gels. DNA fragments were visualized by UV light after staining the gels with ethidium bromide.
Consequently, a study of the activity of type 4-specific PDE inhibitors as inducers of cAMP-mediated apoptosis in leukemic cells from CLL patients was carried out. CLL cells were incubated for 72 hours either alone or with 10 uMol/L rolipram, 40 uMol/L forskolin or both agents. We tested whether rolipram induces intemucleosomal DNA fragmentation characteristic of apoptosis by isolating soluble DNA from the leukemic cells with detergent treatment, then removing DNA from intact non-apoptotic nuclei by centrifugation. […]

Compound: COc1ccc(C2CNC(=O)C2)cc1OC1CCCC1 (racemic) [rolipram, 4-(3-cyclopentyloxy-4-methoxyphenyl)-2-pyrrolidone]
- augmentation of forskolin-stimulated cAMP accumulation [1]: no longer significant rolipram-induced augmentation
- IC50 [2]: 1000 nM
- PDE-4B transcript levels [3]: significantly reduced this fall in PDE-4B transcript levels
- absolute increase in apoptotic cells ([4]; 10 uMol/L, four relatively rolipram-resistant patient samples (Pt #'s 11-14)): less than 33%
- CLL cell apoptosis ([4]; 72 hour culture, rolipram dose range with or without 40 uMol/L forskolin): dose dependent increase in CLL cell apoptosis
- apoptosis of anti-Ig stimulated CLL cells ([4]; CLL cells derived from two patients): failed to protect these cells from rolipram-induced apoptosis
- percentage of apoptotic cells ([4]; Pt. 1, Rai III, basal 47, 40 uMol/L forskolin or 100 uMol/L dbcAMP, three days): 80%
- percentage of apoptotic cells ([4]; Pt. 2, Rai IV, Drug Res. Ch, Cy, basal 18 ± 2, 40 uMol/L forskolin or 100 uMol/L dbcAMP, three days): 79%
- percentage of apoptotic cells ([4]; Pt. 3, Rai IV, Drug Res. Ch, CH, basal 38, 40 uMol/L forskolin or 100 uMol/L dbcAMP, three days): 77 ± 1%
- percentage of apoptotic cells ([4]; Pt. 4, Rai I, basal 31 ± 2, 40 uMol/L forskolin or 100 uMol/L dbcAMP, three days): 76 ± 2%
- percentage of apoptotic cells ([4]; Pt. 5, Rai IV, basal 18, 40 uMol/L forskolin or 100 uMol/L dbcAMP, three days): 57 ± 2%
- percentage of apoptotic cells ([4]; Pt. 6, Rai IV, Drug Res. Ch, basal 17 ± 4, 40 uMol/L forskolin or 100 uMol/L dbcAMP, three days): 54 ± 1%
- percentage of apoptotic cells ([4]; Pt. 7, Rai II, Drug Res. Ch, basal 13 ± 2, 40 uMol/L forskolin or 100 uMol/L dbcAMP, three days): 47 ± 2%
- percentage of apoptotic cells ([4]; Pt. 8, Rai 0, basal 5, 40 uMol/L forskolin, three days): 46%
- percentage of apoptotic cells ([4]; Pt. 9, Rai IV, Drug Res. Ch, Cy, Fl, basal 4 ± 0, 40 uMol/L forskolin or 100 uMol/L dbcAMP, three days): 44 ± 3%
- percentage of apoptotic cells ([4]; Pt. 10, Rai I, basal 11, 40 uMol/L forskolin or 100 uMol/L dbcAMP, three days): 44 ± 0%
- percentage of apoptotic cells ([4]; Pt. 11, Rai 0, basal 24 ± 4, 40 uMol/L forskolin or 100 uMol/L dbcAMP, three days): 40 ± 0%
- percentage of apoptotic cells ([4]; Pt. 12, Rai IV, Drug Res. Ch, Fl, 2C, basal 0 ± 4, 40 uMol/L forskolin or 100 uMol/L dbcAMP, three days): 38 ± 1%
- percentage of apoptotic cells ([4]; Pt. 13, Rai 0, basal 2 ± 0, 40 uMol/L forskolin or 100 uMol/L dbcAMP, three days): 34 ± 0%
- percentage of apoptotic cells ([4]; Pt. 14 (significant population of cells with prolymphocyte morphology), Rai I, basal 13 ± 0, 40 uMol/L forskolin or 100 uMol/L dbcAMP, three days): 14 ± 0%
- effect on doxorubicin-induced apoptosis ([4]; rolipram 10 uMol/L, doxorubicin 0.03 or 0.1 uMol/L, three days): augments doxorubicin-induced apoptosis
- effect on fludarabine-induced apoptosis ([4]; rolipram 10 uMol/L, fludarabine 0.3-3.0 uMol/L, three days): augments fludarabine-induced apoptosis
- effect on chlorambucil-induced apoptosis ([4]; rolipram 10 uMol/L, three days): augments chlorambucil-induced apoptosis
- cAMP levels in CD19+ B cells [5]: raised cAMP levels equivalently
- internucleosomal DNA fragmentation [6]: pronounced internucleosomal DNA fragmentation
